For six molecules, IC50 results are on record in ChEMBL document CHEMBL1148157, “An analysis of cytotoxic botanical formulations used in the traditional medicine of ancient Persia as abortifacients” (J Nat Prod, 2004).

Holding throughout (format): functional, cell-based
In one test the test system is HT-29. As to the kind of experiment: Growth inhibition of human HT29 cells.
A further test has as its system P388. Nature of the test: Growth inhibition of mouse P388 cells.
The nature of test [1]: Growth inhibition of human CNS cancer cells. To be noted: Cancer cell lines.
A short description of test [2]: Growth inhibition of human lung cancer cells. The conditions noted are these: Cancer cell lines.
Test [3] can be described thus: Growth inhibition of human colon cancer cells. The conditions noted are these: Cancer cell lines.
Test [4] is described as follows: Growth inhibition of human breast cancer cells. To be noted: Cancer cell lines.
Test [5] can be described thus: Growth inhibition of human prostate cancer cells. To be noted: cancer cell lines.

Molecules are shown by their SMILES. ≈ marks a conversion by molar mass, not a printed value.

On to `COc1cc([C@@H]2c3cc4c(cc3C[C@H]3COC(=O)[C@@H]32)OCO4)cc(OC)c1OC` [DESOXYPODOPHYLLOTOXIN], for which the IC50 in the test on HT-29 and in the test on P388 was 2.5 ng/mL (≈ 6.27 nM) each time.
With `COc1cc([C@@H]2c3cc4c(c(O)c3C[C@H]3COC(=O)[C@@H]32)OCO4)cc(OC)c1OC` [BETA-PELTATIN A], the IC50 in the test on HT-29 and with P388 was 2.5 ng/mL (≈ 6.03 nM) in each case.
Turning to `CC(C)(O)/C=C/C(=O)[C@](C)(O)[C@H]1[C@H](O)C[C@@]2(C)[C@@H]3CC=C4[C@@H](C=C(O)C(=O)C4(C)C)[C@]3(C)C(=O)C[C@]12C` [CUCURBITACIN I], the IC50 in test [1], in test [2], in test [3] and in test [4] was less than 400 nM each time.
On to `CC(=O)OC(C)(C)/C=C/C(=O)[C@](C)(O)[C@H]1[C@H](O)C[C@@]2(C)[C@@H]3CC=C4[C@H](C[C@H](O)C(=O)C4(C)C)[C@]3(C)C(=O)C[C@]12C` [CUCURBITACIN B], for which the IC50 in test [1], in test [2], in test [3] and in test [4] was less than 400 nM in each case.
`CC(=O)OC(C)(C)/C=C/C(=O)[C@](C)(O)[C@H]1[C@H](O)C[C@@]2(C)[C@@H]3CC=C4[C@@H](C=C(O)C(=O)C4(C)C)[C@]3(C)C(=O)C[C@]12C` [CUCURBITACIN E]: the IC50 in test [1] is less than 400 nM; in test [2] it was less than 400 nM; in test [3] it was less than 400 nM; in test [4], less than 400 nM; in test [5], 7 nmol.
For `CC(C)(O)/C=C/C(=O)[C@](C)(O)[C@H]1[C@H](O)C[C@@]2(C)[C@@H]3CC=C4[C@@H](C[C@H](O)C(=O)C4(C)C)[C@]3(C)C(=O)C[C@]12C` [CUCURBITACIN D], the IC50 in test [1], in test [2], in test [3] and in test [4] was less than 400 nM each time.
